Converted amounts (≈) assume the structure as drawn. Like-named read-outs stand apart in the source and are kept apart here.
Tests used:
MCF-7/ADR cells [1] = assay: Intracellular uptake study of DOX; type: cell-based; conditions: DOX 10 μM, 4 h, fluorescence microscopy and quantitative analysis
Experimental: The effect of didymin on the intracellular uptake of the P-gp substrate was conducted as previously reported (Dai et al., [2016]; Yao et al., [2019]). Briefly, MCF-7/ADR cells were seeded in a 6-well plate at 4 × 10^5 cell/mL overnight before the experiment. Then the cancer cells were incubated with DOX (10 μM) at a concentration with or without didymin formulations for 4 h. Then, the treated cells were washed with ice-cold PBS three times and recorded under fluorescence microscopy (Nikon, Tokyo, Japan). In an independent study, after treatment, the cells were washed with ice-cold PBS and then lysed. Then acetonitrile was added into the cell lysate to extract the didymin via protein precipitation (PP)/extraction method. The didymin concentration in the supernatant was determined by the previously validated HPLC method.

[2] = Pharmacokinetic study after oral administration; type: in vivo; conditions: male, rat, plasma, SD rats, 25 mg/kg
Experimental: All animal experiments were carried out under the Guide for Care and Use of Laboratory Animals and approved by the approval of the Ethics Committee of Wenzhou Medical University. Male SD rats ([…], Shanghai Laboratory Animal Center, China) weighing 220–250 g (n = 6 per group) were studied in the pharmacokinetic study. Free didymin and two types of didymin inclusion complexes (25 mg/kg, respectively) were orally administered with sterilized water. Then blood samples were collected from the orbit venous plexus at predetermined time intervals. The blood samples were then centrifuged at 15000 r/min for 10 min, then dried at 40 °C under nitrogen flow to solid-phase extraction. Methanol was added to dissolve the residue. Then the concentration of didymin in plasma was determined by HPLC methods and calculated the pharmacokinetic parameters.

P-gp transporter = molecular target: T1, P-gp transporter (Homo sapiens, UniProt P08183); assay: Calcein-AM extrusion assay; type: cell-based; conditions: MCF-7/ADR, 30 min pre-incubation then calcein-AM 30 min
T1 construct: endogenous in cells; host or cells: MCF-7/ADR cells
T1 sequence (P08183 whole entry): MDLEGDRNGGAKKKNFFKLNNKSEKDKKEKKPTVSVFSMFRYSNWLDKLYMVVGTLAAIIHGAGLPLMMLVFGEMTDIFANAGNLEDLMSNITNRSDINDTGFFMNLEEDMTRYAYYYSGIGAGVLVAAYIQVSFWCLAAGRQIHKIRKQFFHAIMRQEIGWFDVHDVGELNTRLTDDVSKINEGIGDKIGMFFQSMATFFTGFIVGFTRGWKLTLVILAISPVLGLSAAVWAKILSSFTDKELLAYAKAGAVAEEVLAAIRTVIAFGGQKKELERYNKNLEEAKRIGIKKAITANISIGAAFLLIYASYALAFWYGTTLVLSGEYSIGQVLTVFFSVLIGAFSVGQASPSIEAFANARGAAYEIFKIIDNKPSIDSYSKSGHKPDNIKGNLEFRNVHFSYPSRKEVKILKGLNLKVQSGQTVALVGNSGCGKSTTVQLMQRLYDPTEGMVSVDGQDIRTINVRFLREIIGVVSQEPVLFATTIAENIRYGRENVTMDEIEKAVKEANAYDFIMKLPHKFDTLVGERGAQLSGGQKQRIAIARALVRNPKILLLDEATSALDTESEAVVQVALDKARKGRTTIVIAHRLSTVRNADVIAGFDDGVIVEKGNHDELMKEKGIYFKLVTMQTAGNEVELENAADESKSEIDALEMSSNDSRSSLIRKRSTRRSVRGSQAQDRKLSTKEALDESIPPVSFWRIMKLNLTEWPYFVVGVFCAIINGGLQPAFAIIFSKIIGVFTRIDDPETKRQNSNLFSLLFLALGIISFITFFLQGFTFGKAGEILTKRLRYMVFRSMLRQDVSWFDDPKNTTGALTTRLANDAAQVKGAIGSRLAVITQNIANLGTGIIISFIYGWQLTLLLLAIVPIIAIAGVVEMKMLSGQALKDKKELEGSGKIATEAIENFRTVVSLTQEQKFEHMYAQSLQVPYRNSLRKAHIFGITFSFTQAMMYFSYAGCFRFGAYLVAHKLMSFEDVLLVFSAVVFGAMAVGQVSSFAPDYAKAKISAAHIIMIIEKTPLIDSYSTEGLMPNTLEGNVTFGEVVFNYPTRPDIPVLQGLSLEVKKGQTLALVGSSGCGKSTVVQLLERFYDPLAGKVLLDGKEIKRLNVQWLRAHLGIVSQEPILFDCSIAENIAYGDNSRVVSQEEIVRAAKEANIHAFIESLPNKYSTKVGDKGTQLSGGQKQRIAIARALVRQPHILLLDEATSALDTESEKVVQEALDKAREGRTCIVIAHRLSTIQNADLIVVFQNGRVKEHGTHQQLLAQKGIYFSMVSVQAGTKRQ
Experimental: The effect of didymin and its inclusion complex on the efflux function of P-gp transporter was studied using calcein-AM extrusion assay as reported (Dai et al., [2016]). Briefly, MCF-7/ADR cells were seeded in a 6-well plate at 2 × 10^5 cell/mL overnight before the experiment. The cancer cell was incubated with verapamil or didymin formulations for 30 min and then treated with calcein-AM for another 30 min. Then, the treated cells were washed with ice-cold PBS three times and recorded under fluorescence microscopy. In an independent study, after treatment, the cells were washed, trypsinized, and collected by centrifuge. The collected cells were then washed with PBS and analyzed by flow cytometry (BD Bioscience, Franklin Lakes, NJ, USA). The data was collected with 1 × 10^5 events counter per samples

[3] = Solubility study of didymin in different media (HPLC); type: physicochemical; conditions: for solubility at 72 h: thermodynamic from solid, room temperature, 72 h stirring
Experimental: Add excess didymin into a different medium (water, ethanol, methanol, 1% β-CD, and 1% HP-β-CD), and keep stirring at room temperature for 72 h. After that, 1.5 mL of the suspension was taken for centrifugation to take the supernatant. After filtering with a […] filter membrane (Shanghai Boguang Biotechnology Co., Ltd, Shanghai, China), the concentration of each solution was measured by the HPLC method.
An analytical HPLC method was developed to determine the concentration of didymin. The chromatographic conditions are: Agilent HC-C18 column (4.6 mm × 250 mm, 5 μm) (Agilent Technologies, Inc., Santa Clara, CA, USA), the mobile phase was phosphate buffer (pH 6.8)–methanol (45:55), the detection wavelength was 283 nm, the column temperature was 25 °C, and the flow rate was 1.0 mL/min, and. The samples were filtered (0.45 μm) and deaerated before use.

Acute toxicity study = type: in vivo, BALB/c mice; conditions: mice, single oral dose 250 mg/kg
Experimental: An acute toxicity test was conducted as previously reported (Kandhare et al., [2016]). In brief, the BALB/c mice weighing about 18–22 g were administrated of didymin at a single dose of 250 mg/kg using oral gastric gavages. […] On 15th day animals were sacrificed, and the major organs were collected, fixed, and sliced for H&E staining.

MCF-7 cells = assay: MTT cytotoxicity / chemosensitivity assay, sensitive tumor cells; type: cell-based; conditions: MCF-7, without DOX, tested concentrations
Experimental: (§1) The cytotoxicity of didymin on various cell lines was examined by MTT assay as previously reported (Yao et al., [2019]). The didymin solution was prepared by dissolving in DMSO at different concentrations and diluted with the fresh medium right before the treatment. The didymin inclusion complex was dispersed in the sterilized water and then diluted with the fresh medium before treatment. Experiments involving healthy cells (HUVEC, H9C2, and PC12) by culturing 100 μL cell suspension (5 × 10^4 cell/mL) in 96 well plates. After 24 h incubation, the didymin or didymin inclusion complexes contained medium was used to replace the overnight medium and cultured for 48 h, respectively. After that, the MTT solution at the concentration of 5 mg/mL was added to each well. After 4 h incubation, the medium was removed, and the MTT formazan was dissolved by DMSO. Then the DMSO solution is measured using a microplate reader with the absorbance wavelength at 570 nm. The untreated cells were used as control. The cell viability (%) was calculated as follows, cell viability (%) = Asample/Acontrol ×100.
(§2) The MCF-7 and MCF-7/ADR cells cytotoxicity of the combination of didymin and doxorubicin were evaluated by MTT assay, as mentioned above.

[4] = MTT cytotoxicity assay on healthy cells; type: cell-based; conditions: all tested concentrations 10 μM∼200 μM, read-out: cell viability
Experimental: as §1

MCF-7/ADR cells [5] = assay: MTT cytotoxicity / chemosensitivity assay, resistant tumor cells; type: cell-based
Experimental: as §1, §2

MCF-7/ADR tumor = assay: In vivo antitumor efficacy in mice bearing resistant tumors; set-up: species or system BALB/c nude mice; conditions: DOX 5 mg/kg/3 days i.p.; Didymin/HP-β-CD 20 mg/kg/day i.g.; 14 days
Experimental: To further investigate the chemosensitivity of […] inclusion complex, female BALB/c nude mice (5-6 weeks old, Shanghai Laboratory Animal Center, China) were injected subcutaneously with MCF-7/ADR cells (10^7 cells/per mouse). […] (1) Control group, 0.9% saline (0.2 mL/kg/day, i.p.); (2) DOX group, DOX (5 mg/kg/3 days, i.p.); (3) DOX + […] group, DOX (5 mg/kg/3 days, […] was given by oral gavage (i.g.) while DOX was intraperitoneal injected (i.p.). DOX injection was performed 30 min after the […] by gavage. The mouse weight and tumor volume were measured every day. The tumor volume was obtained using the formula (Yao et al., [2019]). On day 14, the mice were sacrificed, and tumor tissues were collected, fixed and sliced for pathological examination (H&E staining, Ki67 immunohistochemical staining, and TUNEL assay).

## COc1ccc(C2CC(=O)c3c(O)cc(OC4OC(COC5OC(C)C(O)C(O)C5O)C(O)C(O)C4O)cc3O2)cc1 (stereo not drawn) [didymin, isosakuranetin-7-beta-rutinoside]
MCF-7/ADR cells [1]
  DOX intracellular accumulation: increase the DOX intracellular accumulation
[2]
  Cmax: 2.77 µg/mL
  Tmax: 11.4 ± 3 min
  half-life: 105 ± 9.6 min
[2]; read-out: AUC0–12 h
  AUC(0-t): 5.91 µg·h/mL
P-gp transporter
  P-gp efflux function (intracellular calcein fluorescence): significantly inhibit the function of P-gp transporter
[3]; aqueous with cosolvent or surfactant or cyclodextrin, 1% HP-β-CD solution, read-out: solubility in 1% HP-β-CD solution
  solubility at 72 h: 0.735 ± 0.37 mg/mL (≈ 1240 µM)
[3]; organic solvent or mixture, ethanol, read-out: solubility in ethanol
  solubility at 72 h: 1.24 ± 0.72 mg/mL (≈ 2090 µM)
[3]; organic solvent or mixture, methanol, read-out: solubility in methanol
  solubility at 72 h: 11.2 ± 1.19 mg/mL (≈ 18900 µM)
[3]; presence of HP-β-CD
  increase of aqueous solubility compared to free didymin: 6.9 times
[3]; presence of β-CD
  increase of aqueous solubility compared to free didymin: 4.7 times
[3]; water, read-out: solubility in water
  solubility at 72 h: 0.107 ± 0.12 mg/mL (≈ 180 µM)
Acute toxicity study; 14 days
  abnormal behaviors and weight change in the observation period: did not show any abnormal behaviors and weights change
Acute toxicity study; after 14 days
  H&E staining of major organs: no signs of any toxicity
MCF-7 cells
  cytotoxicity alone: did not exert toxicity on cancer cells
[4]; human, HUVEC cells
  viability at 48 h: > 90%
[4]; rat, H9C2 cells, H9C2, 48 h
  viability at 48 h: > 90%
[4]; rat, PC12 cells, PC12, 48 h
  viability at 48 h: > 90%
MCF-7/ADR cells [5]; without DOX, tested concentrations
  cytotoxicity alone: did not exert toxicity on cancer cells

## COc1cccc2c1C(=O)c1c(O)c3c(c(O)c1C2=O)C[C@@](O)(C(=O)CO)C[C@@H]3O[C@H]1C[C@H](N)[C@H](O)[C@H](C)O1 [DOX, doxorubicin, reference compound]
MCF-7/ADR tumor
  tumor growth inhibition: 34%
MCF-7/ADR cells [5]; Homo sapiens, NCI/ADR-RES, free DOX
  IC50: > 20 µM
